Test results: article doi:10.1101/2021.10.07.463234v2 (biorxiv, 2021)
Counter-ions that a name gives are not always drawn.

Target: SARS-CoV-2 Mac1 (Severe acute respiratory syndrome coronavirus 2, UniProt P0DTD1)
Assay: biochemical
Settings: 100 µM; inhibitor

| Compound | %inhibition [%] |
| --- | --- |
| Nc1c(Br)cc(Br)cc1CN[C@H]1CC[C@H](O)CC1 [Ambroxol HCl] | 9.799 |
| Nc1c(Br)cc(Br)cc1CN[C@H]1CC[C@H](O)CC1 [Ambroxol] | 0 |
| N=C(N)NC(=O)c1nc(Cl)c(N)nc1N [Amiloride HCl dihydrate] | 4.635 |
| N=C(N)NC(=O)c1nc(Cl)c(N)nc1N [Amiloride HCl] | 0 |
| CCOC(=O)C1=C(COCCN)NC(C)=C(C(=O)OC)C1c1ccccc1Cl (stereo not shown) [Amlodipine Besylate] | 25.29 |
| CCN(CC)Cc1cc(Nc2ccnc3cc(Cl)ccc23)ccc1O [Amodiaquine dihydrochloride dihydrate] | 0 |
| CCN(CC)Cc1cc(Nc2ccnc3cc(Cl)ccc23)ccc1O [Amodiaquine hydrochloride] | 7.946 |
| CC1(C)S[C@@H]2[C@H](NC(=O)[C@H](N)c3ccc(O)cc3)C(=O)N2[C@H]1C(=O)O [Amoxicillin Sodium] | 14.1 |
| CC1(C)S[C@@H]2[C@H](NC(=O)[C@H](N)c3ccc(O)cc3)C(=O)N2[C@H]1C(=O)O [Amoxicillin trihydrate] | 5.69 |
| CC1(C)S[C@@H]2[C@H](NC(=O)[C@H](N)c3ccc(O)cc3)C(=O)N2[C@H]1C(=O)O [Amoxicillin] | 9.546 |
| CC1(C)S[C@@H]2[C@H](NC(=O)[C@H](N)c3ccccc3)C(=O)N2[C@H]1C(=O)O [Ampicillin Trihydrate] | 20.11 |
| CC1(C)S[C@@H]2[C@H](NC(=O)[C@H](N)c3ccccc3)C(=O)N2[C@H]1C(=O)O [Ampicillin sodium] | 0 |

Same assay, conditions: read-out: %inhibition

| Compound | inhibition at 100 µM [%] |
| --- | --- |
| COc1cc2nc(N(C)CCCNC(=O)C3CCCO3)nc(N)c2cc1OC (stereo not shown) [Alfuzosin HCl] | 0 |
| C=CCc1cc(OC)c(O)c(C(=O)NCCO)c1 [Alibendol] | 15.2 |
| CC(CN(C)C)CN1c2ccccc2Sc2ccccc21 (stereo not shown) [Alimemazine Tartrate] | 12.1 |
| COc1cc(Nc2ncc3c(n2)-c2ccc(Cl)cc2C(c2c(F)cccc2OC)=NC3)ccc1C(=O)O [Alisertib (MLN8237)] | 8.76 |
| COCCCOc1cc(C[C@@H](C[C@H](N)[C@@H](O)C[C@H](C(=O)NCC(C)(C)C(N)=O)C(C)C)C(C)C)ccc1OC [Aliskiren Hemifumarate] | 0 |
| C=CCN1CCCC1CNC(=O)c1cc2nn[nH]c2cc1OC (stereo not shown) [Alizapride HCl] | 0 |
| C=CCNC(N)=S [Allylthiourea] | 7.98 |
| CN(C)CCc1c[nH]c2ccc(CS(=O)(=O)N3CCCC3)cc12 [Almotriptan Malate] | 9.31 |
| Cn1c(=O)cc(N2CCC[C@@H](N)C2)n(Cc2ccccc2C#N)c1=O [Alogliptin] | 12.8 |
| Cc1[nH]cnc1CN1CCc2c(c3ccccc3n2C)C1=O [Alosetron Hydrochloride] | 16.8 |
| CCOC(=O)[C@H]1O[C@@H]1C(=O)N[C@@H](CC(C)C)C(=O)NCCC(C)C [Aloxistatin] | 0 |
| CCCCC[C@H](O)/C=C/[C@H]1[C@H](O)CC(=O)[C@@H]1CCCCCCC(=O)O [Alprostadil] | 0 |
| C=CC[C@]1(O)CC[C@H]2[C@@H]3CCC4=CC(=O)CCC4=C3C=C[C@@]21C [Altrenogest] | 0 |
| CN(C)c1nc(N(C)C)nc(N(C)C)n1 [Altretamine] | 19.5 |
| Cc1c(-c2ccnn2C)cc(C(=O)NCc2ccc(S(C)(=O)=O)cn2)c(=O)n1-c1cccc(C(F)(F)F)c1 [Alvelestat (AZD9668)] | 0 |
| CCN(CCCc1ccccc1)CCCc1ccccc1 [Alverine Citrate] | 8.25 |
| C[C@H]1CN(C[C@H](Cc2ccccc2)C(=O)NCC(=O)O)CC[C@@]1(C)c1cccc(O)c1 [Alvimopan dihydrate] | 12.8 |
| NC12CC3CC(CC(C3)C1)C2 [Amantadine HCl] | 0 |
| COC(c1ccccc1)(c1ccccc1)[C@H](Oc1nc(C)cc(C)n1)C(=O)O [Ambrisentan] | 0 |
| Cc1cccc(C)c1N(CC(=O)Nc1ccc(-c2ncon2)cc1)C(=O)C1CCS(=O)(=O)CC1 [Amenamevir] | 8.46 |
| Nc1c(CC(=O)O)cccc1C(=O)c1ccccc1 [Amfenac Sodium Monohydrate] | 4.46 |
| NCCCNCCSP(=O)(O)O [Amifostine] | 0 |

| Compound | inhibition at 100 µM [%] |
| --- | --- |
| NCC[C@H](O)C(=O)N[C@@H]1C[C@H](N)[C@@H](O[C@H]2O[C@H](CN)[C@@H](O)[C@H](O)[C@H]2O)[C@H](O)[C@H]1O[C@H]1O[C@H](CO)[C@@H](O)[C@H](N)[C@H]1O [Amikacin disulfate] | 0 |
| CCC1(c2ccc(N)cc2)CCC(=O)NC1=O (stereo not shown) [Aminoglutethimide] | 17.3 |
| N=C(N)NN [Aminoguanidine hydrochloride] | 4.16 |
| Cn1c(=O)c2[nH]cnc2n(C)c1=O [Aminophylline] | 5.61 |
| Nc1nccs1 [Aminothiazole] | 1.18 |
| CCN1CCCC1CNC(=O)c1cc(S(=O)(=O)CC)c(N)cc1OC (stereo not shown) [Amisulpride] | 7.08 |
| CN(C)CCC=C1c2ccccc2CCc2ccccc21 [Amitriptyline HCl] | 0 |
| CCOC(=O)C1=C(COCCN)NC(C)=C(C(=O)OC)C1c1ccccc1Cl (stereo not shown) [Amlodipine] | 25.5 |
| CC1(C)[C@@H](O[C@H]2O[C@H](C(=O)O)[C@@H](O)[C@H](O)[C@H]2O[C@@H]2O[C@H](C(=O)O)[C@@H](O)[C@H](O)[C@H]2O)CC[C@]2(C)[C@H]3C(=O)C=C4[C@@H]5C[C@@](C)(C(=O)O)CC[C@]5(C)CC[C@@]4(C)[C@]3(C)CC[C@@H]12 [Ammonium Glycyrrhizinate] | 0 |
| CC(O)C(=O)O (stereo not shown) [Ammonium lactate] | 16.4 |
| CN(C)CCN1C(=O)c2cccc3cc(N)cc(c23)C1=O [Amonafide] | 16.3 |
| CCC(C)(C)c1ccc(CC(C)CN2C[C@@H](C)O[C@@H](C)C2)cc1 (stereo partly shown) [Amorolfine HCl] | 6.98 |
| C[C@@H]1[C@H](O)[C@@H](C)/C=C/C=C/C=C/C=C/C=C/C=C/C=C/[C@H](O[C@@H]2O[C@H](C)[C@@H](O)[C@H](N)[C@@H]2O)C[C@@H]2O[C@](O)(C[C@@H](O)C[C@@H](O)[C@H](O)CC[C@@H](O)C[C@@H](O)CC(=O)O[C@H]1C)C[C@H](O)[C@H]2C(=O)O [Amphotericin B] | 2.16 |
| CCOC(=O)OC(C)OC1=C(C(=O)Nc2ccccn2)N(C)S(=O)(=O)c2ccccc21 (stereo not shown) [Ampiroxicam] | 5.86 |
| CC(C)CN(C[C@@H](O)[C@H](Cc1ccccc1)NC(=O)O[C@H]1CCOC1)S(=O)(=O)c1ccc(N)cc1 [Amprenavir] | 0 |
| CCCc1ncc(C[n+]2ccccc2C)c(N)n1 [Amprolium HCl] | 0 |
| COc1cc(NS(C)(=O)=O)ccc1Nc1c2ccccc2nc2ccccc12 [Amsacrine hydrochloride] | 27 |
| S=C(NCc1ccc2c(c1)OCO2)N1CCN(c2ncnc3c2oc2ccccc23)CC1 [Amuvatinib (MP-470)] | 24.8 |
| O=C1CN2Cc3c(ccc(Cl)c3Cl)N=C2N1 [Anagrelide HCl] | 0 |
| CN(C)N(C)C(=O)[C@@]1(Cc2ccccc2)CCCN(C(=O)[C@@H](Cc2c[nH]c3ccccc23)NC(=O)C(C)(C)N)C1 [Anamorelin] | 1.6 |
| CC(C)(C#N)c1cc(Cn2cncn2)cc(C(C)(C)C#N)c1 [Anastrozole] | 10.3 |
